Results taken from ChEMBL document CHEMBL1141768, “Constituents of Vittaria anguste-elongata and their biological activities” (J Nat Prod, 2005).

What was measured:
Assay type in all cases: functional
[1] = tested on: Radical scavenging activity; test: Antioxidant activity assessed as DPPH free radical scavenging activity after 30 mins
NCI-H460 = test: Cytotoxicity against human NCI-H460 cells at 58 uM
SF-268 = test: Cytotoxicity against human SF268 cells at 58 uM

| Compound | IC50 [1] | inhibition at 58 µM (NCI-H460) | inhibition at 58 µM (SF-268) |
| --- | --- | --- | --- |
| O=C(/C=C/c1ccc(O)c(O)c1)OC[C@H](O)[C@H]1OC(=O)[C@H](O)[C@H]1O | 91 µM |  |  |
| COc1cc(-c2cc(=O)c3c(O)cc(O)cc3o2)cc(OC)c1OC |  | 89% | 61% |
| VITAMIN E | 350 µM |  |  |
| CCOC(=O)[C@]1(O)C[C@@H](O)[C@H](OC(=O)/C=C/c2ccc(O)c(O)c2)[C@H](O)C1 | 234 µM |  |  |
| C[C@H]1OC(=O)[C@@H](O)[C@@H]1OC(=O)/C=C/c1ccc(O)c(O)c1 | 290 µM |  |  |
